Experimental data taken from US4814348A, “Therapeutic compositions containing derivatives of acrylic acid having an oxygen-containing heterocycle, therapeutic treatment therewith and new compounds” (Roussel Uclaf, priority 1983, dated 1989).

Legend:
[1] = test system: total acidity of the gastric secretions; test: Gastric antisecretory activity in pylorus-ligated rats (Shay technique); assay type: in vivo; conditions: dose of 10 mg/kg, intraduodenal, male rats, 3 hours
Protocol: B. Determination of the gastric antisecretory activity
The technique used is described by H. Shay et al in Gastro. Enterology, 5 43 (1945).
Male rats are used of a weight of about 200 g, which had been deprived of food for 48 hours, but with 8% glucose solution ad libitum. The pylorus of the rats, which had been slightly anesthetized with ether, is ligated and then, upon the end of the operation, the product to be tested is administered in different doses or, in the case of the control animals, an 0.5% solution of carboxymethyl cellulose is administered intraduodenally, whereupon the abdominal incision is sutured.
Three hours later, the animals are sacrificed and their stomachs removed after ligation of the esophagus.
The gastric juice is removed and centrifuged. The volume is then noted and the total acidity is determined on 100 μl of gastric juice by titration to a pH of 7 by means of 1/100N caustic soda.
The percentages of variation of total acidity of the gastric secretions are calculated, as compared with the results obtained with the control animals.

[2] = Acute oral toxicity (median lethal dose) in mice; conditions: mouse, in vivo, oral administration
Protocol: The median lethal dose (LD50) was evaluated upon oral administration of the products to mice.

| SMILES | percentage of variation of total acidity of the gastric secretions as compared with control animals [1] [%] | LD50 [2] [mg/kg] |
| --- | --- | --- |
| O=C(O)C=CC(=O)c1ccco1 [Example 3, 4-(2-furyl)-4-oxo-buten-2-oic acid] | 94 | 750 |
| Cc1ccc(C(=O)/C=C/C(=O)O)o1 [Example 6, Trans 4-(5-methyl-2-furyl)-4-oxo-2-butenoic Acid] | 75 | 350 |
| Cc1noc(C)c1C(=O)/C=C/C(=O)O [Example 5, Trans-4(3,5-dimethyl-isoxazol-4-yl)-4-oxo-buten-2-oic acid] | 87 | 350 |
| Cc1cc(O)c(C(=O)C=CC(=O)O)c(=O)o1 [Example 2, 4-(2-oxo-4-hydroxy-6-methyl-2H-pyran-3-yl)-4-oxo-buten-2-oic acid] | 70 | 350 |
| Cc1cc(C(=O)/C=C/C(=O)O)c(C)o1 [Example 7, Trans 4-(2,5-dimethyl-3-furyl)-4-oxo-2-butenoic Acid] | 45 | 350 |
| Cc1nc(C(=O)/C=C/C(=O)O)c(C)o1 [Example 4, Trans 4-(2,5-dimethyl-oxazol-4-yl)-4-oxo-buten-2-oic acid] | 77 | 350 |
| O=C(O)C=CC(=O)c1cc2ccccc2o1 [Example 1, 4-(benzofuran-2-yl)-4-oxo-buten-2-oic acid] | 53 | 350 |
